In general, DC50 refers to the midpoint of the concentration-degradation curve. The low end stands for a more potent degrader, the high end for a less potent degrader. By pIC50 is commonly meant the IC50 on a negative log10 scale, so that one unit is a factor of ten. Higher therefore signals a small IC50.

Results on six compounds are retold here after ChEMBL document CHEMBL4706540, “Targeting estrogen receptor α for degradation with PROTACs: A promising approach to overcome endocrine resistance” (Eur J Med Chem, 2020).

Test [1] concerns the target T1, Estrogen receptor (Homo sapiens, UniProt P03372).
T1 sequence (P03372 whole entry): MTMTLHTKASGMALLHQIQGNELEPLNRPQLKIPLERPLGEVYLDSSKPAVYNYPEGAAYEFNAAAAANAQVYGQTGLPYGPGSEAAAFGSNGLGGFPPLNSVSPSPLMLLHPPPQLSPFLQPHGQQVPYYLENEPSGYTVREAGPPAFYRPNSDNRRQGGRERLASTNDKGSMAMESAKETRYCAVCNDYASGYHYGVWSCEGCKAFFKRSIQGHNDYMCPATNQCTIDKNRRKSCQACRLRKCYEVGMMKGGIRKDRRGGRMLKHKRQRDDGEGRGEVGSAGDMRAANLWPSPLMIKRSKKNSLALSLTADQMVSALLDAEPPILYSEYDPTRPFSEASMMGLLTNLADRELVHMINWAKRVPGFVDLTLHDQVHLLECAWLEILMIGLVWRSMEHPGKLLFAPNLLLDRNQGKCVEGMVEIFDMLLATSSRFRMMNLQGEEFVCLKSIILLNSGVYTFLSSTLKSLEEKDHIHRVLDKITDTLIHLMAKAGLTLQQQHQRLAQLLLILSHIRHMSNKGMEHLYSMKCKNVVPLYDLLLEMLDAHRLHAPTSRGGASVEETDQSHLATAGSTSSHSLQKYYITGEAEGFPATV
Nature of the test: Induction of XIAP-mediated estrogen receptor alpha degradation in human MCF7 cells incubated for 4 hrs by western blot analysis. The test is classed as cell-based. On the technique in general: A western blot detects proteins with antibodies after separation by electrophoresis.

In test [2] the test system is MCF7. The test can be described thus: Antiproliferative activity against human MCF7 cells incubated for 6 days with replacement of medium every 2 to 3 days by MTT assay relative to control. Type of test: functional. As to conditions: time 6 day. On the technique in general: Tetrazolium dyes change colour on reduction, which living cells bring about.
Test [3] has as its target T2, von Hippel-Lindau disease tumor suppressor/Estrogen receptor (Homo sapiens, UniProt P03372+P40337). The test can be described thus: Induction of VHL-mediated ERalpha degradation in human MCF7 cells by western blot analysis. The test is classed as cell-based.
Target sequence in this assay (P40337 whole entry, one chain of several): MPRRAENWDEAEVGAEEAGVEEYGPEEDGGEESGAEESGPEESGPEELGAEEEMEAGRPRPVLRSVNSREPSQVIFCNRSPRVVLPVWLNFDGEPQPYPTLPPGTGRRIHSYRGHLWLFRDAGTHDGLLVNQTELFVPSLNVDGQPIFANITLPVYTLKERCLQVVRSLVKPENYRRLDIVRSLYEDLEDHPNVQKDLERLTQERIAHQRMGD
Test [4] has as its system T47D. The test can be described thus: Antiproliferative activity against human T47D cells incubated for 6 days with replacement of medium every 2 to 3 days by MTT assay relative to control. Type of test: functional. The settings on record: time 6 day.
Test [5] relates to T47D. The test can be described thus: Antiproliferative activity against human T47D cells incubated for 6 days with replacement of medium every 2 to 3 days by MTT assay. Type of test: functional, cell-based.
Test [6] concerns MCF7. The test can be described thus: Antiproliferative activity against human MCF7 cells incubated for 6 days with replacement of medium every 2 to 3 days by MTT assay. Type of test: functional, cell-based.
The target of test [7] is T2, von Hippel-Lindau disease tumor suppressor/Estrogen receptor. The test can be described thus: Induction of VHL-mediated ERalpha degradation in human MCF7 cells assessed as maximum degradation by western blot analysis relative to control. The test is classed as cell-based.
Target sequence in this assay (P40337 whole entry, looked up, one chain of several): as the sequence (P40337 whole entry, one chain of several) above
Test [8] concerns MCF7. The test can be described thus: Growth inhibition of human MCF7 cells harboring wild type estrogen receptor incubated for 5 days by PrestoBlue cell viability assay. Type of test: functional, cell-based. As to conditions: MCF7, 120 h.
For test [9], the system named is MCF7. Nature of the test: Growth inhibition of human MCF7 cells harboring ER Y537S mutant incubated for 5 days by PrestoBlue cell viability assay. Type of test: functional, cell-based. As to conditions: MCF7, 120 h.
Test [10] concerns MCF7. The test can be described thus: Growth inhibition of human MCF7 cells harboring ER D538G mutant incubated for 5 days by PrestoBlue cell viability assay. Type of test: functional, cell-based. As to conditions: MCF7, 120 h.
The target of test [11] is T2, von Hippel-Lindau disease tumor suppressor/Estrogen receptor. The test can be described thus: Induction of VHL-mediated ERalpha degradation in human T47D cells assessed as maximum degradation by western blot analysis relative to control. The test is classed as cell-based.
Target sequence in this assay (P40337 whole entry, looked up, one chain of several): as the sequence (P40337 whole entry, one chain of several) above
For test [12] the target is unchanged. Nature of the test: Induction of VHL-mediated ERalpha degradation in human T47D cells by western blot analysis. The test is classed as cell-based.
Target sequence in this assay (P40337 whole entry, one chain of several): as above
Test [13] deals with MCF7. Nature of the test: Induction of IAP-mediated estrogen receptor alpha degradation in human MCF7 cells at <1 uM by western blot analysis relative to control. Type of test: cell-based. The settings on record: dose microM <1.
Test [14] relates to MCF7. The test can be described thus: Antiproliferative activity against human MCF7 cells incubated for 72 hrs by crystal violet staining based assay. Type of test: functional, cell-based. As to conditions: MCF7, 72 h.
Test [15] relates to T47D. Nature of the test: Antiproliferative activity against human T47D cells incubated for 72 hrs by crystal violet staining based assay. The test is classed as functional, cell-based.

Structures are written as SMILES. pIC50: −log10 of the molar value.

Consider `CCC(=C(c1ccc(O)cc1)c1ccc(OCCN(C)C(=O)COCCOCCOCCOc2cccc(O[C@H]3C[C@@H](C(=O)N[C@@H]4CCCc5ccccc54)N(C(=O)[C@@H](NC(=O)[C@H](C)NC)C4CCCCC4)C3)c2)cc1)c1ccccc1`, for which the 50% degradation concentration (DC50) in test [1] is less than 3 nM.

Take `Cc1ncsc1-c1ccc([C@H](C)NC(=O)[C@@H]2C[C@@H](O)CN2C(=O)[C@@H](NC(=O)CCCCOc2ccc(CNNC(=O)c3ccc(C(=O)c4c(-c5ccc(O)cc5)sc5cc(O)ccc45)cc3)cc2)C(C)(C)C)cc1`: the results for the Imax in [2], in [4] and in test [7] were 69%, 78% and 98%, respectively. Moreover, half-maximal degradation in [3] (DC50) was put at 1.13 nM. Moreover, the results for the pIC50 in test [5] and in [6] were 7.77 and 7.88, respectively.

For `CCN(CCCCCCCC(=O)N[C@H](C(=O)N1C[C@H](O)C[C@H]1C(=O)N[C@@H](C)c1ccc(-c2scnc2C)cc1)C(C)(C)C)CCOc1ccc(C(=O)c2c(-c3ccc(O)cc3)sc3cc(O)ccc23)cc1`, the negative-log IC50 (pIC50) was 9.10 in [8], 7.98 in [9] and 8.21 in [10].

`Cc1ncsc1-c1ccc([C@H](C)NC(=O)[C@@H]2C[C@@H](O)CN2C(=O)[C@@H](NC(=O)CCCCOc2ccc(/C=N/NC(=O)c3ccc(C(=O)c4c(-c5ccc(O)cc5)sc5cc(O)ccc45)cc3)cc2)C(C)(C)C)cc1`: the Imax was 60% in test [2], greater than 95% in test [11], 73% in test [4] and 95% in test [7]. Further, the values for the DC50 in test [3] and in test [12] were 7.7 nM and 10.3 nM, respectively. The negative logarithm of the IC50 (pIC50) in test [5] was 7.19; in test [6], 7.16.

`CN[C@@H](C)C(=O)N[C@H](C(=O)N1Cc2cc(OCCOCCOCCOCCOc3ccc(Oc4c(-c5ccc(O)cc5)sc5cc(O)ccc45)cc3)ccc2C[C@H]1C(=O)N[C@@H]1CCCc2ccccc21)C(C)(C)C` showed an Activity in [13] greater than 50%.

In the case of `CCC(=C(c1ccc(O)cc1)c1ccc(OCCN(C)C(=O)COCCOCCOCCOc2cccc(C(=O)c3csc([C@@H]4CCCN4C(=O)[C@@H](NC(=O)[C@H](C)NC)C4CCCCC4)n3)c2)cc1)c1ccccc1`, the negative logarithm of the IC50 (pIC50) in [14] was 7.81; in test [15], 8.02. The 50% degradation concentration (DC50) in test [1] is less than 3 nM.
